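Five concentrations, 48 hours, 96-well plates. Definition used: TGI = concentration required for complete inhibition of growth.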
Tests used:
Assay in all cases: NCI-60 cell line screen, 48 h
[1] = system: OVCAR-4 ovarian
[2] = system: NCI-H460 lung
[3] = system: UACC-62 melanoma
[4] = system: SN12C renal
[5] = system: UACC-257 melanoma
[6] = system: SF-539 CNS
[7] = system: K-562 leukemia
[8] = system: A498 renal
[9] = system: UO-31 renal
[10] = system: HOP-92 NSCLC
[11] = system: HL-60(TB) leukemia
[12] = system: IGROV1 ovarian
[13] = system: HCT-116 colon
[14] = system: SK-OV-3 ovarian
[15] = system: MDA-MB-231 breast
[16] = system: PC-3 prostate
[17] = system: HS 578T breast
[18] = system: NCI/ADR-RES ovarian
[19] = system: CAKI-1 renal
[20] = system: EKVX NSCLC
[21] = system: SW-620 colon
[22] = system: NCI-H23 lung
[23] = system: SK-MEL-28 melanoma
[24] = system: SR leukemia
[25] = system: TK-10 renal
[26] = system: SK-MEL-2 melanoma
[27] = system: OVCAR-8 ovarian
[28] = system: RXF 393 renal
[29] = system: ACHN renal
[30] = system: RPMI-8226 leukemia
[31] = system: HT29 colon
[32] = system: KM12 colon
[33] = system: OVCAR-3 ovarian
[34] = system: MOLT-4 leukemia
[35] = system: MCF7 breast
[36] = system: MALME-3M melanoma
[37] = system: HOP-62 NSCLC
[38] = system: CCRF-CEM leukemia
[39] = system: DU-145 prostate
[40] = system: SF-268 CNS
[41] = system: M14 melanoma
[42] = system: MDA-N
[43] = system: BT-549 breast
[44] = system: OVCAR-5 ovarian
[45] = system: U251 CNS
[46] = system: A549 NSCLC
[47] = system: SNB-19 CNS
[48] = system: 786-0 renal
[49] = system: COLO 205 colon
[50] = system: SF-295 CNS
[51] = system: T-47D breast
[52] = system: HCT-15 colon
[53] = system: SK-MEL-5 melanoma
[54] = system: MDA-MB-435
[55] = system: NCI-H522 lung
[56] = system: NCI-H226 lung
[57] = system: HCC-2998 colon
[58] = system: SNB-75 CNS
[59] = system: LOX IMVI melanoma

COc1cc(=O)c2c(O)c3c(O)oc(C)cc3c(OC)c2c1
TGI [1]: 27.9 µM | TGI [2]: > 100 µM | TGI [3]: 52.9 µM | TGI [4]: 55.8 µM | TGI [5]: > 100 µM | TGI [6]: 53.8 µM | TGI [7]: 51.7 µM | TGI [8]: > 100 µM | TGI [9]: > 100 µM | TGI [10]: 42.4 µM | TGI [11]: > 100 µM | TGI [12]: 70.2 µM | TGI [13]: 38.4 µM | TGI [14]: 71.2 µM | TGI [15]: 62.5 µM | TGI [16]: > 100 µM | TGI [17]: > 100 µM | TGI [18]: 46.7 µM | TGI [19]: 97.5 µM | TGI [20]: 63.8 µM | TGI [21]: > 100 µM | TGI [22]: 69.8 µM | TGI [23]: 60 µM | TGI [24]: 64.2 µM | TGI [25]: 64.9 µM | TGI [26]: 98.9 µM | TGI [27]: 72 µM | TGI [28]: > 100 µM | TGI [29]: 63 µM | TGI [30]: 46.4 µM | TGI [31]: 40.7 µM | TGI [32]: 65.8 µM | TGI [33]: 59.1 µM | TGI [34]: 73.7 µM | TGI [35]: > 100 µM | TGI [36]: 47 µM | TGI [37]: 76.1 µM | TGI [38]: 52.6 µM | TGI [39]: > 100 µM | TGI [40]: > 100 µM | TGI [41]: 88.5 µM | TGI [42]: 80.6 µM | TGI [43]: > 100 µM | TGI [44]: 86.6 µM | TGI [45]: > 100 µM | TGI [46]: 87.7 µM | TGI [47]: > 100 µM | TGI [48]: 86.7 µM | TGI [49]: 42.2 µM | TGI [50]: 72.7 µM | TGI [51]: 90.8 µM | TGI [52]: 86.8 µM | TGI [53]: 64.5 µM | TGI [54]: 32.7 µM | TGI [55]: > 100 µM

CC(=O)OCC(OC(C)=O)C(OC(C)=O)C(/C=N\Nc1nc2ccccc2c(=O)[nH]1)=N\Nc1nc2ccccc2c(=O)[nH]1 (centres undefined)
TGI [2]: 47.6 µM | TGI [3]: > 100 µM | TGI [56]: > 100 µM | TGI [4]: > 100 µM | TGI [5]: 34 µM | TGI [57]: 36.3 µM | TGI [6]: > 100 µM | TGI [7]: > 100 µM | TGI [9]: > 100 µM | TGI [10]: > 100 µM | TGI [11]: > 100 µM | TGI [12]: > 100 µM | TGI [13]: > 100 µM | TGI [14]: > 100 µM | TGI [15]: > 100 µM | TGI [16]: > 100 µM | TGI [17]: > 100 µM | TGI [18]: > 100 µM | TGI [19]: > 100 µM | TGI [20]: > 100 µM | TGI [21]: > 100 µM | TGI [22]: > 100 µM | TGI [23]: > 100 µM | TGI [24]: > 100 µM | TGI [58]: > 100 µM | TGI [26]: > 100 µM | TGI [27]: > 100 µM | TGI [28]: > 100 µM | TGI [29]: > 100 µM | TGI [30]: > 100 µM | TGI [31]: > 100 µM | TGI [32]: > 100 µM | TGI [33]: > 100 µM | TGI [34]: > 100 µM | TGI [35]: > 100 µM | TGI [36]: > 100 µM | TGI [37]: > 100 µM | TGI [38]: > 100 µM | TGI [39]: > 100 µM | TGI [40]: > 100 µM | TGI [41]: > 100 µM | TGI [42]: > 100 µM | TGI [43]: > 100 µM | TGI [44]: > 100 µM | TGI [45]: > 100 µM | TGI [46]: > 100 µM | TGI [47]: > 100 µM | TGI [48]: > 100 µM | TGI [49]: > 100 µM | TGI [50]: > 100 µM | TGI [51]: > 100 µM | TGI [52]: > 100 µM | TGI [53]: > 100 µM | TGI [54]: > 100 µM | TGI [59]: > 100 µM | TGI [55]: > 100 µM

CCN(CC)CCC(=O)c1ccc(Sc2ccc(F)cc2)cc1
TGI [1]: 42.9 µM | TGI [2]: 41.1 µM | TGI [3]: 31.1 µM | TGI [56]: 39.2 µM | TGI [4]: 46.8 µM | TGI [5]: 31 µM | TGI [57]: 89.6 µM | TGI [6]: 32.9 µM | TGI [7]: > 100 µM | TGI [8]: 45.7 µM | TGI [9]: 31.9 µM | TGI [11]: 50.5 µM | TGI [12]: 35 µM | TGI [13]: 33.6 µM | TGI [14]: 45 µM | TGI [15]: 34 µM | TGI [16]: 33.6 µM | TGI [17]: 30.8 µM | TGI [18]: 71.1 µM | TGI [19]: 29.5 µM | TGI [20]: 41.8 µM | TGI [21]: 41.2 µM | TGI [22]: 33.9 µM | TGI [23]: 34.3 µM | TGI [24]: 48.6 µM | TGI [58]: 32.2 µM | TGI [25]: 27.9 µM | TGI [26]: 45.1 µM | TGI [27]: 48.1 µM | TGI [28]: 35.1 µM | TGI [29]: 33.2 µM | TGI [30]: 9.74 µM | TGI [31]: 85.2 µM | TGI [32]: 30.6 µM | TGI [33]: 40.9 µM | TGI [34]: 33.5 µM | TGI [35]: 31 µM | TGI [36]: 33.4 µM | TGI [37]: 41.4 µM | TGI [38]: 34 µM | TGI [39]: 36.1 µM | TGI [40]: 35.1 µM | TGI [41]: 54.6 µM | TGI [42]: 49 µM | TGI [43]: 31.6 µM | TGI [44]: 39.3 µM | TGI [45]: 31.1 µM | TGI [46]: > 100 µM | TGI [47]: 34 µM | TGI [48]: 23.6 µM | TGI [49]: 41.9 µM | TGI [50]: 35.1 µM | TGI [51]: 42.9 µM | TGI [52]: 33.4 µM | TGI [53]: 34.5 µM | TGI [54]: 32.4 µM | TGI [59]: 37.2 µM | TGI [55]: 35.8 µM
